Data taken from patent publication US20260026522A1, “METHODS AND DEVICE FOR CO-TREATMENT OF CROP PROTECTION CHEMICALS WITH PLANT GROWTH REGULATORS” (AGROFRESH INC., priority 2016, published 2026).

Tests used:
[1] = system: Penicillium expansum and Botrytis cinerea; assay: Fungicide fogging of wounded, inoculated Golden Delicious apples: fungal lesion size; assay type: in vivo; conditions: 24 h fog at 20° C., measured Day 3 or 4
From the text: Freshly harvested plants and crops, such as fruit crops (e.g. apple fruits), were wounded and inoculated with fungal pathogens. Immediately after harvest on Day 0, Golden Delicious apples were wounded on the left and/or the right sides of the fruit. The wounds were immediately inoculated with one or more fungal strains. For example, the wounds on the left side of the fruit were inoculated with Penicillium, while the wounds on the right side of the fruit were inoculated with Botrytis. After inoculation, the apples remained at 20° C. throughout the remainder of the experimental trial.
Inoculated fruits were separated in preparation for an experimental trial that comprised three replicates of 10-fruit cohorts each totaling 5.1 kg of Golden Delicious apples (see Table 1). After inoculation, the apples were held at 20° C. in a closed, controlled environment until fungicide treatment. Prior to fungicide treatment, a fruit cohort was removed from the controlled environment and transported to a sealed treatment chamber having a temperature of 20° C. The fruit cohorts were each treated with a single respective fungicide on Day 0 (i.e., day of harvest), as well as Days 1, 2, 3, and/or 4 after harvest (see Table 2).
More specifically, each fruit cohort was treated a single time for 24 hours with a specific fungicide solution comprising the following active ingredients: benzoxaborole (BOB), thiabendazole (TBZ), pyrimethanil (PYR), and fludioxonil (FDL) as described in Table 1 below. The fungicide solutions used to treat inoculated apples comprised the following concentration of active ingredients: a 100 g/L of benzoxaborole (BOB), thiabendazole (TBZ), and fludioxonil (FDL), or a 160 g/L of pyrimethanil (PYR), respectively (see Table 1).
Inoculated fruits were also treated with a propylene glycol-inoculated negative control (GLY IC). This propylene glycol-inoculated control treatment comprised only propylene glycol, a common fungicide treatment carrier, with no active ingredient (see Table 1). In addition, another cohort of inoculated fruits was not treated with a fungicide at all to produce an untreated inoculated control (UNTRT IC).
In this trial, replicate cohorts of Golden Delicious apples were treated by fogging with 167 μL of the benzoxaborole (BOB) solution, 270 μL of the thiabendazole (TBZ) solution, 410 μL of the pyrimethanil (PYR) solution, or 170 μL of the fludioxonil (FDL) solution, respectively (see Table 1). The fungicide fogging treatment was applied to the Golden Delicious apples in the sealed treatment chamber comprising a volume of 1.1 m^3 such that the final concentration of active ingredient (“ai”) of each fungicide applied to the Golden Delicious apples during the trial was 3.3 mg/kg of benzoxaborole (BOB), 8.0 mg/kg of thiabendazole (TBZ) solution, 8.5 mg/kg of pyrimethanil (PYR) solution, and 3.3 mg/kg of fludioxonil (FDL), respectively (see Table 1).
After 24 hours of fungicide treatment in the sealed chamber at 20° C., treated apples were returned back to the closed, controlled environment for storage. Storage of treated fruit occurred for at least 12 hours and for up to approximately 72 hours until Day 3 or Day 4 when fungal lesions on the treated fruit were measured (see Table 2). For example, inoculated fruit cohorts treated with fungicide on Day 0, where returned to the control chamber on Day 1 and stored there for at least 12 hours (e.g., approximately 48-72 hours) until their fungal lesions were measured on Days 3 or 4 (see Table 2). Inoculated fruit cohorts treated with fungicide on Day 1, where returned to the control chamber on Day 2 and stored there for at least 12 hours (e.g., approximately 24-48 hours) until their fungal lesions were measured on Days 3 or 4 (see Table 2). […]

Penicillium expansum = assay: Fungicide fogging of wounded, inoculated Red Delicious apples: Penicillium lesion size; assay type: in vivo, Penicillium expansum on Red Delicious apples; conditions: for Fungal Lesion Diameter: Penicillium expansum, measured Day 4; for Inhibition of Penicillium expansum fungal growth compared to untreated and propylene glycol controls / Penicillium expansum lesion sizes, range over treatment days: treated on Days 0-3
Protocol: (§1) This experiment was conducted exactly the same as described above in Example 1 unless noted otherwise. For example, instead of Golden Delicious apples, this experiment was performed on Red Delicious apples, which are harvested later in the season than Golden Delicious apples. Freshly harvested Red Delicious apples were wounded on the left and right side with Penicillium and Botrytis fungal pathogens, respectively. After inoculation, the apples remained at 20° C. throughout the remainder of the experimental trial to measure growth of the Botrytis fungal pathogen. Inoculated fruits were separated in preparation for an initial trial which comprised three replicates of 10-fruit cohorts totaling 5.5 kg of Red Delicious apples, respectively (see Table 1).
(§2) In this trial, replicate cohorts of Red Delicious apples were fog treated with 250 μL of the benzoxaborole (BOB) solution, 620 μL of the thiabendazole (TBZ) solution, 410 μL of the pyrimethanil (PYR) solution, or 250 μL of the fludioxonil (FDL) solution, respectively (see Table 1). The fungicide fogging treatment was applied to the Red Delicious apples in the sealed treatment chamber comprising a volume of 1.1 m^3 such that the final concentration of active ingredient (“ai”) of each fungicide applied to the Red Delicious apples during the trial was 4.6 mg/kg of benzoxaborole (BOB), 11.2 mg/kg of thiabendazole (TBZ) solution, 11.8 mg/kg of pyrimethanil (PYR) solution, and 4.6 mg/kg of fludioxonil (FDL), respectively (see Table 1).
(§3) After 24 hours of fungicide treatment in the sealed chamber at 20° C., treated apples were returned back to the closed, controlled environment for storage. As described in Example 1, storage of treated Red Delicious apples occurred for at least 12 hours and for up to approximately 72 hours until Day 4 when fungal lesions on the treated Red Delicious apples were measured (see Table 2).
This experiment was conducted exactly the same as described above in Example 2 unless noted otherwise. In particular, freshly harvested Red Delicious apples were wounded on the left and right side with Penicillium and Botrytis fungal pathogens, respectively. After inoculation, the apples remained at 20° C. throughout the remainder of the experimental trial to measure growth of the Penicillium fungal pathogen.

Botrytis cinerea = assay: Fungicide fogging of wounded, inoculated Red Delicious apples: Botrytis lesion size; assay type: in vivo, Botrytis cinerea on Red Delicious apples; conditions: measured Day 4
Protocol: as §1, §2, §3

[2] = Fungicide Fog Day 0, Penicillium and Botrytis lesions averaged
[3] = Fungicide Fog Day 1, Penicillium and Botrytis lesions averaged
[4] = Fungicide Fog Day 2, Penicillium and Botrytis lesions averaged
[5] = Fungicide Fog Day 0, 24 h fog at 20° C.
[6] = Fungicide Fog Day 1, 24 h fog at 20° C.
[7] = Fungicide Fog Day 2, 24 h fog at 20° C.
[8] = Fungicide Fog Day 3, 24 h fog at 20° C.

Row | Compound | Fungal Lesion Diameter [1, 2] | Fungal Lesion Diameter [1, 3] | Fungal Lesion Diameter [1, 4] | Fungal Lesion Diameter (Penicillium expansum; [5]) | Fungal Lesion Diameter (Penicillium expansum; [6]) | Fungal Lesion Diameter (Penicillium expansum; [7]) | Fungal Lesion Diameter (Penicillium expansum; [8]) | Fungal Lesion Diameter (Botrytis cinerea; [5]) | Fungal Lesion Diameter (Botrytis cinerea; [6]) | Fungal Lesion Diameter (Botrytis cinerea; [7]) | Fungal Lesion Diameter (Botrytis cinerea; [8]) | Inhibition of Penicillium expansum fungal growth compared to untreated and propylene glycol controls (Penicillium expansum) | Penicillium expansum lesion sizes, range over treatment days (Penicillium expansum)
1 | N#CC1=CN=CC1c1cccc2c1OC(F)(F)O2 (stereo not shown) [FDL, 4-(2,2-difluoro-1,3-benzodioxol-4-yl)-1H-pyrrole-3-carbonitrile] | 1.6 mm | 2.7 mm | 3.0 mm | 11.0 mm | 13.2 mm | 13.4 mm | 15.5 mm | 4.1 mm | 7.0 mm | 8.2 mm | 11.7 mm |  | 
2 | Cc1cc(C)nc(Nc2ccccc2)n1 [PYR, 4,6-Dimethyl-N-phenylpyrimidin-2-amine] | 0.4 mm | 1.3 mm | 3.6 mm | 17.2 mm | 17.1 mm | 18.3 mm | 18.3 mm | 9.2 mm | 10.4 mm | 12.4 mm | 12.5 mm | Neither treatments comprising pyrimethanil (PYR) nor thiabendazole (TBZ) showed a consistent increase in inhibition of Penicillium expansum fungal growth or any significant difference | 17.1-18.3 mm
3 | c1ccc2[nH]c(-c3cscn3)nc2c1 [TBZ, 4-(1H-1,3-Benzodiazol-2-yl)-1,3-thiazole] | 2.0 mm | 4.5 mm | 4.9 mm | 18.0 mm | 18.4 mm | 17.6 mm | 18.3 mm | 10.9 mm | 12.1 mm | 12.7 mm | 12.4 mm | Neither treatments comprising pyrimethanil (PYR) nor thiabendazole (TBZ) showed a consistent increase in inhibition of Penicillium expansum fungal growth or any significant difference | 17.6-18.4 mm
